Test results: ChEMBL document CHEMBL4715853 (J Med Chem, 2020)

Experiments:
Human coronavirus OC43 [1] = assay: Antiviral activity against wild type HCoV-OC43 infected in BHK-21 cells incubated for 72 hrs by RT-PCR method; type: functional, cell-based; details: Betacoronavirus 1, BHK-21, 72 h
[2] = Antiviral activity against HCoV-NL63 infected in Rhesus macaque LLC-MK2 cells incubated for 72 hrs by RT-PCR method; type: functional, cell-based; details: Human coronavirus NL63, LLC-MK2, 72 h
in vitro [3] = details: hamster, BHK-21 cells
in vitro [4] = details: hamster, BHK-21 cells; remark: listed apart in the source
in vitro [5] = details: rhesus monkey, LLC-MK2 cells
in vitro [6] = details: rhesus monkey, LLC-MK2 cells; remark: listed apart in the source
[7] = Inhibition of SARS Coronavirus helicase expressed in Escherichia coli assessed as reduction in ATP hydrolysis preincubated for 5 mins followed by ATP and circular ssDNA M13 addition and measured after 10 mins by malachite green and ammonium molybdate reagent based assay; design: species or system Severe acute respiratory syndrome-related coronavirus
[8] = Inhibition of SARS Coronavirus helicase expressed in Escherichia coli assessed as reduction in dsDNA unwinding activity by FRET assay; design: species or system Severe acute respiratory syndrome-related coronavirus
[9] = Cytotoxicity against African green monkey Vero E6 cells by the CCK8 assay; type: cell-based, Vero C1008; details: chlorocebus sabaeus
Human coronavirus OC43 [10] = assay: Antiviral activity against wild type HCoV-OC43 infected in human Huh-7 cells preincubated for 1 hrs followed by overlaying with reduced-serum Medium and measured after 72 hrs ELISpot assay; type: functional, cell-based; details: Betacoronavirus 1, Huh-7
[11] = Cytotoxicity against human Huh-7 cells by CellTiter-Glo assay; type: cell-based
Human coronavirus 229E = assay: Antiviral activity against HCoV-229E infected in human Huh7 cells assessed as reduction in virus induced cytopathic effect incubated for 6 days by cellTiter-Glo assay; type: functional, organism-based; details: Huh-7, 144 h
Huh-7 = assay: Cytotoxicity against human Huh7 cells incubated for 6 days by cellTiter-Glo assay; type: functional; details: Huh-7, 144 h, time 6 day
SARS-CoV [12] = assay: Antiviral activity against SARS-CoV expressing green fluorescent protein infected in human airway epithelial cells incubated for 48 hrs by RT-PCR method; type: functional, organism-based; details: Severe acute respiratory syndrome-related coronavirus, HAE
[13] = Cytotoxicity against HAE cells by CellTiter-Glo assay; type: cell-based; details: human
SARS-CoV [14] = assay: Antiviral activity against SARS-CoV FFM1 infected in African green monkey Vero cells assessed as reduction in virus induced cytopathic effect treated twice for 7 days; type: functional, organism-based; details: Severe acute respiratory syndrome-related coronavirus, 168 h
SARS-CoV [15] = assay: Antiviral activity against SARS-CoV FFM2 infected in African green monkey Vero cells assessed as reduction in virus induced cytopathic effect treated twice for 7 days; type: functional, organism-based; details: Severe acute respiratory syndrome-related coronavirus, 168 h
[16] = Selectivity ratio of CC50 for African green monkey Vero cells to EC50 for SARS-CoV FFM1 infected in African green monkey Vero cells; type: toxicity; details: read-out: Ratio CC50/EC50
[17] = Selectivity ratio of CC50 for African green monkey Vero cells to EC50 for SARS-CoV FFM2 infected in African green monkey Vero cells; type: toxicity; details: read-out: Ratio CC50/EC50
SARS-CoV-2 [18] = assay: Antiviral activity against 2019-nCoV BetaCoV/Wuhan/WIV04/2019 infected in African green monkey VeroE6 cells assessed as reduction in viral yield preincubated with virus for 1 hr followed by cell infection and […] by qRT-PCR method; type: functional, organism-based; details: Severe acute respiratory syndrome coronavirus 2, BetaCoV/Wuhan/WIV04/2019, Vero C1008
[19] = Selectivity index, ratio of CC50 for African green monkey Vero E6 cells to EC50 for 2019-nCoV Beta CoV/Wuhan/WIV04/2019 infected in African green monkey Vero E6 cells; type: toxicity, Vero C1008; details: read-out: Ratio CC50/EC50
[20] = Inhibition of SARS Coronavirus helicase pp1ab domain assessed as reduction in ATPase activity by phosphomolybdate-malachite green assay; design: species or system Severe acute respiratory syndrome-related coronavirus
[21] = Inhibition of SARS Coronavirus helicase pp1ab domain assessed as reduction in helicase activity using DT20Cy3/Release BHQ oligomers by FRET-based assay; design: species or system Severe acute respiratory syndrome-related coronavirus
SARS-CoV-2 [22] = assay: Antiviral activity against SARS-CoV-2 infected in African green monkey Vero cells incubated for 48 hrs by RT-PCR method; type: functional, organism-based; details: Severe acute respiratory syndrome coronavirus 2, Vero
[23] = Selectivity index, ratio of CC50 for African green monkey Vero E6 cells to EC50 for SARS-CoV infected in African green monkey Vero E6 cells; type: toxicity, Vero C1008; details: read-out: Ratio CC50/EC50
[24] = Cytotoxicity against African green monkey Vero E6 cells incubated for 2 days by the MTS assay; type: cell-based, Vero C1008; details: chlorocebus sabaeus, time 2 day
SARS-CoV [25] = assay: Antiviral activity against SARS-CoV infected in African green monkey Vero E6 cells assessed as reduction in viral replication by ELISA; type: functional, organism-based; details: Severe acute respiratory syndrome-related coronavirus, Vero C1008
SARS-CoV [26] = assay: Antiviral activity against SARS-CoV BJ-001 infected in African green monkey Vero E6 cells assessed as reduction in virus induced cytopathic effect by visual observation; type: functional, organism-based; details: Severe acute respiratory syndrome-related coronavirus, BJ-001, Vero C1008
SARS-CoV [27] = assay: Antiviral activity against SARS-CoV BJ-001 infected in African green monkey Vero E6 cells assessed as reduction in virus induced cytopathic effect incubated for 72 hrs by MTS/phenazine methosulfate method; type: functional, organism-based; details: Severe acute respiratory syndrome-related coronavirus, BJ-001, Vero C1008, 72 h
[28] = Cytotoxicity against African green monkey Vero E6 cells incubated for 72 hrs by MTS assay; type: cell-based, Vero C1008; details: chlorocebus sabaeus
[29] = Selectivity ratio of CC50 for HAE cells to EC50 for SARS-CoV BJ-001 infected in African green monkey Vero E6 cells; type: toxicity, Vero C1008
Human coronavirus OC43 [30] = assay: Antiviral activity against HCoV-OC43 infected in BALB/c mouse assessed as protection against virus-induced lethal infection at 15 mg/kg, ip administered for 14 days and measured up to 20 days; type: functional; details: time day <=20

SMILES: COc1c(C)c2c(c(O)c1C/C=C(\C)CCC(=O)O)C(=O)OC2 [MYCOPHENOLIC ACID]
- EC50 (Human coronavirus OC43 [1]): 1.95 µM
- EC50 [2]: 0.18 µM
- CC50 at 72 h (in vitro [3]): 3.55 µM
- selectivity ratio (in vitro [4]): 1.8
- CC50 at 72 h (in vitro [5]): 3.44 µM
- selectivity ratio (in vitro [6]): 19

SMILES: CCn1c(S)nc2c1c(=O)[nH]c(=O)n2C
- IC50 [7]: 8.66 µM
- IC50 [8]: 41.6 µM

SMILES: CCC(CC)COC(=O)[C@H](C)N[P@](=O)(OC[C@H]1O[C@@](C#N)(c2ccc3c(N)ncnn23)[C@H](O)[C@@H]1O)Oc1ccccc1
- CC50 [9]: 100 µM
- EC50 (Human coronavirus OC43 [10]): 0.15 µM
- CC50 [11]: > 10 µM
- EC50 (Human coronavirus 229E): 0.024 µM
- CC50 (Huh-7): > 10 µM
- EC50 (SARS-CoV [12]): 0.06 µM
- CC50 [13]: > 10 µM

SMILES: CC1(C)[C@@H](O[C@H]2O[C@H](C(=O)O)[C@@H](O)[C@H](O)[C@H]2O[C@@H]2O[C@H](C(=O)O)[C@@H](O)[C@H](O)[C@H]2O)CC[C@]2(C)[C@H]3C(=O)C=C4[C@@H]5C[C@@](C)(C(=O)O)CC[C@]5(C)CC[C@@]4(C)[C@]3(C)CC[C@@H]12 [GLYCYRRHIZIN]
- EC50 (SARS-CoV [14]): 365 µM
- EC50 (SARS-CoV [15]): 365 µM
- selectivity ratio [16]: 66
- selectivity ratio [17]: 66

SMILES: N=C(N)c1ccc2cc(OC(=O)c3ccc(N=C(N)N)cc3)ccc2c1 [NAFAMOSTAT]
- EC50 (SARS-CoV-2 [18]): 22.5 µM
- CC50 [9]: > 100 µM
- selectivity ratio [19]: > 4.4

SMILES: COc1cc(C23OC4(O)CC(O)(CC(O)(C4)O2)O3)ccc1O
- IC50 [20]: 0.68 µM
- IC50 [21]: 2.7 µM

SMILES: Cc1nc(I)c(C(=O)O)c(C23OC4(O)CC(O)(CC(O)(C4)O2)O3)c1O
- IC50 [20]: 0.54 µM
- IC50 [21]: 7 µM

SMILES: CCN(CCO)CCCC(C)Nc1ccnc2cc(Cl)ccc12 (centres undefined) [HYDROXYCHLOROQUINE]
- IC50 (SARS-CoV-2 [22]): 0.72 µM

SMILES: COc1c(C)c2c(c(O)c1C/C=C(\C)CCC(=O)OCCN1CCOCC1)C(=O)OC2 [MYCOPHENOLATE MOFETIL]
- EC50 (Human coronavirus OC43 [1]): 1.58 µM
- EC50 [2]: 0.23 µM
- CC50 at 72 h (in vitro [3]): 3.43 µM
- selectivity ratio (in vitro [4]): 2.2
- CC50 at 72 h (in vitro [5]): 3.01 µM
- selectivity ratio (in vitro [6]): 13

SMILES: C/C=C(\C)C(=O)O[C@H]1[C@H](OC(C)=O)[C@]2(CO)[C@H](O)C[C@]3(C)C(=CC[C@@H]4[C@@]5(C)CC[C@H](O[C@@H]6O[C@H](C(=O)O)[C@@H](O[C@@H]7O[C@H](CO)[C@@H](O)[C@H](O)[C@H]7O)[C@H](O)[C@H]6O[C@@H]6O[C@H](CO)[C@@H](O)[C@H](O)[C@H]6O)[C@](C)(CO)[C@@H]5CC[C@]43C)[C@@H]2CC1(C)C [ESCIN IA]
- selectivity ratio [23]: 2.5
- CC50 at 48 h [24]: 25 µM
- IC50 (SARS-CoV [25]): 6 µM

SMILES: CC[C@@]1([C@H]2O[C@H]([C@H]3O[C@@](O)(CO)[C@H](C)C[C@@H]3C)C[C@H]2C)CC[C@H]([C@@]2(C)CC[C@]3(C[C@H](O)[C@@H](C)[C@@H]([C@H](C)[C@H](OC)[C@@H](C)C(=O)O)O3)O2)O1 [MONENSIN SODIUM]
- EC50 (Human coronavirus OC43 [1]): 3.81 µM
- EC50 [2]: 1.54 µM

SMILES: O[C@H]1[C@H]2c3cc4c(cc3CN3CCC(=C[C@@H]1O)[C@H]23)OCO4 [LYCORINE]
- EC50 (Human coronavirus OC43 [1]): 0.15 µM
- IC50 (SARS-CoV [26]): 0.0157 µM
- IC50 (SARS-CoV [27]): 0.0157 µM
- CC50 at 72 h [28]: 14.9 µM
- selectivity ratio [29]: 954
- EC50 [2]: 0.47 µM
- Activity (Human coronavirus OC43 [30]): 83.3%
- CC50 at 72 h (in vitro [3]): 4.37 µM
- selectivity ratio (in vitro [4]): 29.1
- CC50 at 72 h (in vitro [5]): 3.81 µM
- selectivity ratio (in vitro [6]): 8.11
